{"source": "patent US9161910B2", "about": "“Method and pharmaceutical compositions for trans-buccal mucosa treatment of postprandial hyperglycaemia in type II diabetes” (priority 2009, dated 2015)", "key": {"[1]": {"conditions": "cited from earlier work; for distribution volume: in vivo"}, "[2]": {"conditions": "cited from earlier work; for solubility in alcohol: alcohol / ethanol"}, "[3]": {"system": "plasma carrier proteins", "conditions": "cited from earlier work"}, "[4]": {"system": "obese, diabetic patients", "conditions": "continuous perfusion, 6 weeks; cited from earlier work"}, "[5]": {"experiment": "Complete dissolution in hydroalcoholic solution according to the invention", "assay_type": "physicochemical", "conditions": "approximately 50° hydroalcoholic solution", "from_the_text": "The term “dissolved in a stable and a complete manner” means a state of dissolution restoring the active principle to the molecular state, slightly ionized in its dissolving medium, the state of dissolution preventing any possibility of inopportune recrystallization."}, "[6]": {"conditions": "oral; cited from earlier work"}}, "note": "Where two headings read alike, the source gives them in different places."}
{"compound": "N#C[C@@H]1CCCN1C(=O)CNC12CC3CC(CC(O)(C3)C1)C2", "note": "[Vildagliptin, vildagliptin]", "values": [{"measurement": "bioavailability", "setting": "[1]; oral", "value": "approximately 85%"}, {"measurement": "solubility in organic solvents", "setting": "[2]", "value": "soluble in water and organic solvents"}, {"measurement": "solubility in water", "setting": "[2]", "value": "soluble in water"}]}
{"compound": "N[C@@H](CC(=O)N1CCn2c(nnc2C(F)(F)F)C1)Cc1cc(F)c(F)cc1F", "note": "[Sitagliptin, sitagliptin]", "values": [{"measurement": "bioavailability", "setting": "[1]; oral", "value": "~87", "unit": "%"}, {"measurement": "mean distribution volume in the organism", "setting": "[1]; single dose of 100 mg intravenous", "value": "approximately 198 L"}, {"measurement": "binding to plasma proteins (in words)", "setting": "[3]", "value": "bound to plasma proteins"}, {"measurement": "solubility in organic solvents", "setting": "[2]", "value": "soluble in water and certain organic solvents"}, {"measurement": "solubility in water", "setting": "[2]", "value": "soluble in water"}]}
{"compound": "glucagon-like peptide-1 [GLP-1]", "values": [{"measurement": "reduction in postprandial glycemia", "setting": "[4]", "value": 5.5, "unit": "mM"}, {"measurement": "reduction of hemoglobin HbAlC", "setting": "[4]", "value": 1.3, "unit": "%"}]}
{"compound": "Cc1ccc(S(=O)(=O)NC(=O)NN2CC3CCCC3C2)cc1", "note": "(stereo not drawn) [Gliclazide, gliclazide]", "values": [{"measurement": "distribution volume", "setting": "[1]", "value": "approximately 30 L"}, {"measurement": "distribution volume", "setting": "[1]; listed as gliclazide", "value": 30, "unit": "L"}, {"measurement": "hepatic metabolism (in words)", "setting": "[1]; oral", "value": "extensively metabolized by the first hepatic passage"}, {"measurement": "binding to plasma carrier proteins", "setting": "[3]", "value": 95, "unit": "%"}, {"measurement": "solubility in alcohol", "setting": "[2]", "value": "slightly soluble in alcohol"}, {"measurement": "solubility in water", "setting": "[2]", "value": "insoluble in water"}, {"measurement": "complete dissolution, amount", "setting": "[5]", "value": 3.5, "unit": "mg for 0.75 mL"}]}
{"compound": "COc1ccc(Cl)cc1C(=O)NCCc1ccc(S(=O)(=O)NC(=O)NC2CCCCC2)cc1", "note": "[glibenclamide]", "values": [{"measurement": "solubility in alcohol", "setting": "[2]", "value": "slightly soluble in ethanol"}, {"measurement": "solubility in water", "setting": "[2]", "value": "practically insoluble in water"}, {"measurement": "complete dissolution, amount", "setting": "[5]", "value": 1, "unit": "mg per 1 mL"}]}
{"compound": "CCOc1cc(CC(=O)N[C@@H](CC(C)C)c2ccccc2N2CCCCC2)ccc1C(=O)O", "note": "[Repaglinide, repaglinide]", "values": [{"measurement": "inter-individual variability in plasma concentration", "setting": "[6]", "value": 60, "unit": "%"}, {"measurement": "intra-individual variability in plasma concentration", "setting": "[6]", "value": 35, "unit": "%"}, {"measurement": "onset of insulinotropic response after taking", "setting": "[6]", "value": "approximately 30 min"}]}
{"compound": "CN(C)C(=N)N=C(N)N", "note": "[Metformin, metformin]", "values": [{"measurement": "binding to plasma proteins (in words)", "setting": "[3]", "value": "not bound to plasma proteins"}]}
